Test systems include SK-MEL-2 melanoma; SK-MEL-28 melanoma; IGROV1 ovarian; HT29 colon; MOLT-4 leukemia; DU-145 prostate; MCF7 breast; SNB-19 CNS; RPMI-8226 leukemia; NCI-H460 lung.
What all share (experiment): DTP human tumour cell line panel, 48 h

The source of these data is PubChem BioAssay (NCI).

Molecules are shown by their SMILES.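 Growth conditions: 96-well plates. Treatment: test compound, 48 hours, 5 concentrations. Analysis: linear interpolation between bracketing concentrations; unreached endpoints set to highest concentration. The concentration for 50% growth inhibition is given as GI50. Definition used: TGI = concentration required for complete inhibition of growth.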

A word on the TGI: it is the concentration at which net growth stops. On to `Cc1nc(NC(C)(CO)CO)nc(N/N=C/c2ccc(Cl)cc2)c1C(=O)Nc1ccc(Cl)cc1`, for which the TGI in the test on SK-MEL-2 melanoma, with SK-MEL-28 melanoma, with IGROV1 ovarian, in the test on HT29 colon, in the test on MOLT-4 leukemia and in the test on DU-145 prostate was more than 100 µM in each case. In addition, the TGI in the test on MCF7 breast, in the test on SNB-19 CNS, with RPMI-8226 leukemia and in the test with NCI-H460 lung was more than 100 µM each time.

For the molecule `C=C1c2nc3ccccc3n2C=C(c2ccc(C)cc2)N1c1ccc(OC)cc1`, the TGI was more than 100 µM with SK-MEL-2 melanoma; more than 100 µM with SK-MEL-28 melanoma; more than 100 µM in the test with IGROV1 ovarian; more than 91.2 µM in the test with HT29 colon; more than 100 µM with MOLT-4 leukemia; more than 100 µM with DU-145 prostate. Moreover, the TGI was more than 100 µM with MCF7 breast, more than 100 µM in the test with SNB-19 CNS, more than 58.5 µM with RPMI-8226 leukemia and more than 100 µM in the test with NCI-H460 lung.

For `O=C(O)C(Cc1ccccc1)NCc1c(O)ccc2c(-c3ccccc3)cc(=O)oc12` (stereo not given), the TGI in the test with SK-MEL-2 melanoma, in the test on SK-MEL-28 melanoma, in the test on IGROV1 ovarian, in the test with HT29 colon, in the test on MOLT-4 leukemia and in the test on DU-145 prostate was more than 100 µM in each case. For the same molecule, the TGI in the test on MCF7 breast, in the test with SNB-19 CNS, in the test on RPMI-8226 leukemia and with NCI-H460 lung was more than 100 µM in each case.

Usually GI50 stands for the concentration that inhibits growth by half. With `CCOC(=O)NC(=S)N(CC(=O)c1cc(OC)c(OC)c(OC)c1)c1ccc(Cl)cc1`, the GI50 was 47.4 µM with SK-MEL-2 melanoma; 75.8 µM in the test on SK-MEL-28 melanoma; 70.1 µM with IGROV1 ovarian; more than 100 µM with HT29 colon; 52.3 µM in the test with MOLT-4 leukemia; 79.1 µM in the test on DU-145 prostate. Moreover, the GI50 is more than 100 µM in the test with MCF7 breast, more than 100 µM in the test on SNB-19 CNS, 30.2 µM with RPMI-8226 leukemia and 52.5 µM in the test with NCI-H460 lung. Besides, the TGI in the test on SK-MEL-2 melanoma, in the test on SK-MEL-28 melanoma, in the test on IGROV1 ovarian, with HT29 colon, with MOLT-4 leukemia and with DU-145 prostate was more than 100 µM in each case. Besides, the TGI in the test on MCF7 breast, with SNB-19 CNS, in the test with RPMI-8226 leukemia and with NCI-H460 lung was more than 100 µM each time.

As to `Nc1c(C(=O)c2ccc(Cl)c(Cl)c2)[nH]c(NCc2ccccc2)c1C(=S)Nc1ccccc1`, the total growth inhibition concentration (TGI) in the test with SK-MEL-2 melanoma was 25.9 µM; in the test with SK-MEL-28 melanoma, 18.9 µM; in the test with IGROV1 ovarian, 26.5 µM; in the test with HT29 colon, 11 µM; with MOLT-4 leukemia, more than 100 µM; in the test on DU-145 prostate, 32.4 µM. For the same molecule, the TGI in the test with MCF7 breast came to 12.3 µM; with SNB-19 CNS, 37.7 µM; in the test with RPMI-8226 leukemia, 6.03 µM; in the test on NCI-H460 lung it was 20.7 µM.

As for `Cc1ccccc1NC(=O)O/N=C(\Cl)C(C)C`, the TGI in the test with SK-MEL-2 melanoma is 32.6 µM; in the test on SK-MEL-28 melanoma, 6.25 µM; in the test on IGROV1 ovarian it was 27.6 µM; with HT29 colon, 11.7 µM; with MOLT-4 leukemia, more than 28 µM; with DU-145 prostate, 31.5 µM. Besides, the total growth inhibition concentration (TGI) with MCF7 breast was 22.1 µM; in the test with SNB-19 CNS it was 41.9 µM; in the test with RPMI-8226 leukemia, 4.03 µM; in the test with NCI-H460 lung, 34.7 µM.

In the case of `COC(=N)C1(C#N)NC(c2ccsc2)C(C#N)(C#N)NC1c1ccsc1` (stereo not given), the TGI in the test on SK-MEL-2 melanoma, in the test on SK-MEL-28 melanoma, in the test on IGROV1 ovarian, in the test on HT29 colon, in the test on MOLT-4 leukemia and with DU-145 prostate was more than 100 µM in each case. Besides, the TGI with MCF7 breast, in the test with SNB-19 CNS, in the test on RPMI-8226 leukemia and in the test on NCI-H460 lung was more than 100 µM each time.

Regarding `COc1cc(CCNC2=CC(=O)c3nc[nH]c3C2=O)ccc1O`, the TGI came to 52.1 µM with SK-MEL-2 melanoma; 60.4 µM in the test on SK-MEL-28 melanoma; 52.8 µM in the test with IGROV1 ovarian; 53.9 µM in the test with HT29 colon; 89.1 µM with MOLT-4 leukemia; 34.6 µM in the test with DU-145 prostate. For the same molecule, the TGI in the test on MCF7 breast is 33.5 µM; in the test with SNB-19 CNS it was 33.3 µM; with RPMI-8226 leukemia, 68.7 µM; in the test on NCI-H460 lung, more than 100 µM.

Turning to `CCOP(=O)(/C=C/n1cc(C)c(=O)[nH]c1=O)OCC`, the TGI with SK-MEL-2 melanoma, in the test with SK-MEL-28 melanoma, in the test on IGROV1 ovarian, in the test with HT29 colon, in the test on MOLT-4 leukemia and with DU-145 prostate was more than 100 µM throughout. Moreover, the TGI in the test with MCF7 breast, in the test with SNB-19 CNS, in the test on RPMI-8226 leukemia and in the test with NCI-H460 lung was more than 100 µM in each case.

With `O=C1c2cc3c(cc2-c2c1c1cc(F)c(F)cc1c(=O)n2CCCn1ccnc1)OCO3`, the GI50 in the test with SK-MEL-2 melanoma was 0.256 µM; in the test on SK-MEL-28 melanoma, 0.228 µM; with IGROV1 ovarian, 0.14 µM; in the test on HT29 colon it was 0.0189 µM; in the test with MOLT-4 leukemia, less than 0.01 µM; in the test on DU-145 prostate, less than 0.01 µM. Moreover, the concentration for 50% growth inhibition (GI50) is less than 0.01 µM with MCF7 breast, less than 0.01 µM with SNB-19 CNS, 0.0253 µM with RPMI-8226 leukemia and less than 0.01 µM in the test on NCI-H460 lung. The TGI with SK-MEL-2 melanoma was 0.93 µM; in the test on SK-MEL-28 melanoma, more than 100 µM; with IGROV1 ovarian, more than 100 µM; with HT29 colon it was more than 100 µM; with MOLT-4 leukemia, 1.24 µM; with DU-145 prostate, more than 100 µM. Besides, the TGI in the test with MCF7 breast is 1.39 µM; in the test with SNB-19 CNS, more than 100 µM; in the test with RPMI-8226 leukemia, 0.673 µM; in the test on NCI-H460 lung, 0.199 µM.

With `O=c1[nH]c(=O)n(COC(CO)CO)cc1-c1ccccc1`, the TGI in the test with SK-MEL-2 melanoma, with SK-MEL-28 melanoma, with IGROV1 ovarian, in the test with HT29 colon, in the test on MOLT-4 leukemia and in the test on DU-145 prostate was more than 100 µM throughout. In addition, the concentration for total growth inhibition (TGI) in the test on MCF7 breast, in the test with SNB-19 CNS, in the test with RPMI-8226 leukemia and in the test on NCI-H460 lung was more than 100 µM in each case.
